Source: the NIST ThermoML archive (doi:10.1016/j.fluid.2012.11.013)

Settings: Liquid, Vibrating tube method

CC(C)C(C)C [2,3-dimethylbutane]
mass density [kg/m3]
Settings	283.15 K	288.15 K	293.15 K	298.15 K	303.15 K	308.15 K	313.15 K	318.15 K	323.15 K	328.15 K
100 kPa	670.76	666.22	661.58	657	652.31	647.61	642.78	638.08	633.18	628.26
2000 kPa	672.72	668.35	663.76	659.21	654.73	650.13	645.28	640.8	636.04	631.14
5000 kPa	675.8	671.5	667.04	662.62	658.23	653.82	649.18	644.77	640.11	635.61
7000 kPa	677.77	673.5	669.15	664.81	660.39	656.12	651.62	647.3	642.73	638.3
10000 kPa	680.57	676.37	672.12	667.97	663.63	659.42	655.04	650.89	646.47	642.27
20000 kPa	689.26	685.39	681.36	677.49	673.54	669.63	665.61	661.8	657.61	653.85
30000 kPa	697.12	693.43	689.64	686.05	682.15	678.59	674.74	671.23	667.06	663.86
40000 kPa	704.27	700.77	697.12	693.73	690.01	686.72	683.04	679.58	676.08	672.8
50000 kPa	710.91	707.56	704.07	700.78	697.16	694.02	690.56	687.47	684.13	680.68
60000 kPa	717.08	713.85	710.4	707.39	703.95	700.83	697.4	694.5	691.19	688.05
65000 kPa	720.09	716.77	713.55	710.52	707.12	704.06	700.79	697.71	694.58	691.47

CCCC(C)C [2-methylpentane]
mass density [kg/m3]
Settings	283.15 K	288.15 K	293.15 K	298.15 K	303.15 K	308.15 K	313.15 K	318.15 K	323.15 K	328.15 K
100 kPa	662.38	657.8	653.28	648.63	643.96	639.25	634.49	629.65	624.76	619.82
2000 kPa	664.49	659.95	655.38	651	646.27	641.65	637.11	632.32	627.48	622.75
5000 kPa	667.45	663.16	658.76	654.32	649.83	645.36	640.96	636.32	631.78	627.22
7000 kPa	669.44	665.17	660.81	656.61	652.12	647.77	643.31	638.86	634.39	629.87
10000 kPa	672.23	668.05	663.8	659.71	655.36	651.1	646.93	642.49	638.24	633.86
20000 kPa	680.99	677.13	673.11	669.38	665.3	661.38	657.45	653.46	649.56	645.47
30000 kPa	689.02	685.21	681.56	677.93	673.98	670.38	666.76	663.07	659.4	655.55
40000 kPa	696.18	692.59	689.05	685.62	682.03	678.4	675.03	671.49	667.99	664.47
50000 kPa	702.82	699.4	695.95	692.66	689.27	685.81	682.68	679.17	675.91	672.49
60000 kPa	708.98	705.61	702.39	699.21	695.84	692.62	689.53	686.27	683.16	679.93
65000 kPa	711.97	708.71	705.49	702.34	699.14	695.97	692.86	689.7	686.56	683.41

CCC(C)CC [3-methylpentane]
mass density [kg/m3]
Settings	283.15 K	288.15 K	293.15 K	298.15 K	303.15 K	308.15 K	313.15 K	318.15 K	323.15 K	328.15 K
100 kPa	673.34	668.91	664.28	659.73	655.07	650.44	645.7	640.93	636.14	631.22
2000 kPa	675.33	670.93	666.4	661.91	657.33	652.85	648.1	643.46	638.83	634.03
5000 kPa	678.2	673.95	669.49	665.13	660.71	656.28	651.77	647.27	642.73	638.2
7000 kPa	680.08	675.9	671.54	667.22	662.86	658.61	654.13	649.71	645.26	640.84
10000 kPa	682.8	678.66	674.41	670.25	666	661.77	657.53	653.27	648.88	644.64
20000 kPa	691.21	687.28	683.39	679.53	675.49	671.68	667.66	663.74	659.72	655.85
30000 kPa	698.81	695.19	691.45	687.73	683.96	680.42	676.56	672.89	669.28	665.6
40000 kPa	705.94	702.32	698.72	695.4	691.63	688.33	684.59	681.17	677.73	674.39
50000 kPa	712.39	708.77	705.44	702.25	698.64	695.51	692.01	688.56	685.39	682.22
60000 kPa	718.5	715.04	711.72	708.63	705.24	702.1	698.74	695.68	692.42	689.42
65000 kPa	721.33	718.14	714.81	711.62	708.41	705.28	702.04	699.05	695.87	692.79

CCC(C)(C)C [2,2-dimethylbutane]
mass density [kg/m3]
Settings	283.15 K	288.15 K	293.15 K	298.15 K	303.15 K	308.15 K	313.15 K	318.15 K	323.15 K	328.15 K
100 kPa	658.57	653.96	649.25	644.46	639.75	634.86	630.04	625.06	620.03	–
2000 kPa	660.76	656.25	651.6	646.95	642.26	637.48	632.76	627.98	623.17	618.2
5000 kPa	664.07	659.62	655.12	650.7	646.07	641.54	637.06	632.33	627.74	623.02
7000 kPa	666.19	661.74	657.45	653.04	648.58	644.04	639.66	635.14	630.61	626.02
10000 kPa	669.19	664.88	660.66	656.38	652.04	647.69	643.44	639.02	634.54	630.26
20000 kPa	678.5	674.51	670.51	666.62	662.53	658.58	654.67	650.69	646.65	642.58
30000 kPa	686.83	683.05	679.25	675.66	671.8	668.08	664.53	660.78	656.94	653.14
40000 kPa	694.31	690.77	687.12	683.71	680.03	676.55	673.1	669.72	666.02	662.51
50000 kPa	701.27	697.81	694.34	691.09	687.56	684.38	680.94	677.73	674.2	670.88
60000 kPa	707.71	704.32	701.07	697.88	694.57	691.41	688.22	685.05	681.7	678.64
65000 kPa	710.76	707.61	704.25	701.14	697.92	695.23	691.61	688.58	685.35	682.59
